These results are taken from patent publication US9884063B2, “Amido-substituted azole compounds” (Bayer Pharma Aktiengesellschaft, priority 2014, dated 2018).

As usually defined, the IC50 is the concentration needed to halve the response being measured. Higher therefore signals weaker potency.

The test has as its target T1, TNKS2 (Homo sapiens, UniProt Q9H2K2).
T1 sequence (Q9H2K2 1-1166): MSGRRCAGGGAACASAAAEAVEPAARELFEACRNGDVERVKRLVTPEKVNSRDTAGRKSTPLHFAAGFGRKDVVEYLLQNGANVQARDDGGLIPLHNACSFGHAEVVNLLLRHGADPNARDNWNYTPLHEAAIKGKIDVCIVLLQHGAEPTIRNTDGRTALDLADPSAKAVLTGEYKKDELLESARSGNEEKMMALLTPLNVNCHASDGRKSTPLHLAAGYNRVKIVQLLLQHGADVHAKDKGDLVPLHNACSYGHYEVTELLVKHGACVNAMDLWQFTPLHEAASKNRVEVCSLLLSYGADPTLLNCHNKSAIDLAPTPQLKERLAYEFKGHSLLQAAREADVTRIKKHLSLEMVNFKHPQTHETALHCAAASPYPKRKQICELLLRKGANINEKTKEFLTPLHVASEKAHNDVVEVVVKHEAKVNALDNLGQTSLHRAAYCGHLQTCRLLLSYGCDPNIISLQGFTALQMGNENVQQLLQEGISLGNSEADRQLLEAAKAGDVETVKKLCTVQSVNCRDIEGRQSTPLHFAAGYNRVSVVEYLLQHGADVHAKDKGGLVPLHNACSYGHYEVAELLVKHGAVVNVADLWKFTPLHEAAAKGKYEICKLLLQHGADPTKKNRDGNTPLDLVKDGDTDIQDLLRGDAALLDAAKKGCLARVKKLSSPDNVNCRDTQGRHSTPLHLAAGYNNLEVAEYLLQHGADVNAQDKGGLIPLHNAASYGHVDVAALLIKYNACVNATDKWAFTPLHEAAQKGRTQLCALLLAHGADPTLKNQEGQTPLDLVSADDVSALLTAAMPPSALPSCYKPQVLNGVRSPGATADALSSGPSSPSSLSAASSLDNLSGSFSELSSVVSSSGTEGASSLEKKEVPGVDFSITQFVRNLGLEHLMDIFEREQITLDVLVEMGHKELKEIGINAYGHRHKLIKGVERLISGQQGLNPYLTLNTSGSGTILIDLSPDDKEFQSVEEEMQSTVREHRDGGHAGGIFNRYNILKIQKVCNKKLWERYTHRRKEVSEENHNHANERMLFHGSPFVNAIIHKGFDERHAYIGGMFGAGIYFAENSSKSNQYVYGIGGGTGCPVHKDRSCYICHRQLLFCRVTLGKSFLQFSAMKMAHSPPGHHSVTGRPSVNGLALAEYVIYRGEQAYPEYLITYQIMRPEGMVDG
Description: Modified TNKS2 Assay 2 (auto-parsylation, [3H]-NAD+ SPA). The test is classed as biochemical. The conditions noted are these: 6 nM TNKS2, 96 well.

Regarding `CNC(=O)c1[nH]c(C(C)C)nc1C(=O)Nc1ccc(NC(=O)c2ccc(F)cc2Cl)cc1` [Example 106, N^4-{4-[(2-chloro-4-fluorobenzoyl)amino]phenyl}-2-isopropyl-N^5-methyl-1H-imidazole-4,5-dicarboxamide], the IC50 is greater than 10 µM.

Consider `COC(=O)c1nc[nH]c1C(=O)Nc1ccc(NC(=O)c2ccc(F)cc2Cl)c(OC)c1` [Example 94, methyl 5-({4-[(2-chloro-4-fluorobenzoyl)amino]-3-methoxyphenyl}carbamoyl)-1H-imidazole-4-carboxylate], for which the IC50 came out at 0.5 µM. This lies in the sub-micromolar range.

`COC(=O)c1nc[nH]c1C(=O)Nc1ccc(NC(=O)c2ccccc2Cl)c(C)c1` [Example 86, methyl-5-({4-[(2-chlorobenzoyl)amino]-3-methylphenyl}carbamoyl)-1H-imidazole-4-carboxylate]: the IC50 stood at 3.4 µM. This IC50 lies about 6.8-fold higher than the previous one.

As to `COc1cc(NC(=O)c2[nH]cnc2C(=O)NCCN2CCCCC2)ccc1NC(=O)c1ccc(F)cc1Cl` [Example 97, N^5-{4-[(2-chloro-4-fluorobenzoyl)amino]-3-methoxyphenyl}-N^4-[2-(piperidin-1-yl)ethyl]-1H-imidazole-4,5-dicarboxamide], half-maximal inhibition (IC50) required 0.005 µM. Against the preceding molecule, the IC50 is about 680-fold lower.

With `COC(=O)c1nc[nH]c1C(=O)Nc1ccc(NC(=O)c2ccccc2Cl)c(OC)c1` [Example 98, methyl 5-({4-[(2-chlorobenzoyl)amino]-3-methoxyphenyl}carbamoyl)-1H-imidazole-4-carboxylate], the IC50 amounted to 0.37 µM.

As for `CNC(=O)c1nc[nH]c1C(=O)Nc1ccc(NC(=O)c2ccccc2Cl)nc1` [Example 112, N^5-{6-[(2-chlorobenzoyl)amino]pyridin-3-yl}-N^4-methyl-1H-imidazole-4,5-dicarboxamide], the IC50 turned out to be 0.37 µM.

`COC(=O)c1nc[nH]c1C(=O)Nc1ccc(NC(=O)c2ccc(F)cc2)c(OC)c1` [Example 102, methyl 5-({4-[(4-fluorobenzoyl)amino]-3-methoxyphenyl}carbamoyl)-1H-imidazole-4-carboxylate] returned an IC50 greater than 10 µM.

Consider `CN(C)CCNC(=O)c1nc[nH]c1C(=O)Nc1ccc(NC(=O)c2ccccc2Cl)nc1` [Example 113, N^5-{6-[(2-chlorobenzoyl)amino]pyridin-3-yl}-N^4-[2-(dimethylamino)ethyl]-1H-imidazole-4,5-dicarboxamide], for which inhibition was half-maximal at 0.04 µM (IC50).

As to `CNC(=O)c1nc[nH]c1C(=O)Nc1ccc(NC(=O)c2ccc(F)cc2Cl)c(OC)c1` [Example 95, N^5-{4-[(2-chloro-4-fluorobenzoyl)amino]-3-methoxyphenyl}-N^4-methyl-1H-imidazole-4,5-dicarboxamide], the IC50 stood at 0.47 µM. Compared with the last molecule, the IC50 is about 12-fold higher.

`Cc1cc(NC(=O)c2[nH]cnc2C(=O)NCCN2CCCCC2)ccc1NC(=O)c1ccccc1Cl` [Example 89, N^5-{4-[(2-chlorobenzoyl)amino]-3-methylphenyl}-N^4-[2-(piperidin-1-yl)ethyl]-1H-imidazole-4,5-dicarboxamide] showed an IC50 of 0.05 µM.

Molecule `COc1cc(NC(=O)c2[nH]cnc2C(=O)NCCN(C)C)ccc1NC(=O)c1ccc(F)cc1Cl` [Example 96, N^5-{4-[(2-chloro-4-fluorobenzoyl)amino]-3-methoxyphenyl}-N^4-[2-(dimethylamino)ethyl]-1H-imidazole-4,5-dicarboxamide] returned an IC50 of 0.04 µM.

As for `COc1cc(NC(=O)c2[nH]cnc2C(=O)NCCN(C)C)ccc1NC(=O)c1ccccc1Cl` [Example 100, N^5-{4-[(2-chlorobenzoyl)amino]-3-methoxyphenyl}-N^4-[2-(dimethylamino)ethyl]-1H-imidazole-4,5-dicarboxamide], the IC50 is 0.16 µM. This IC50 lies about 4-fold higher than the previous one.
